Data reported in ChEMBL document CHEMBL5120779, “Thiazolidinedione-Based Structure Modification of Celastrol Provides Thiazolidinedione-Conjugated Derivatives as Potent Agents against Non-Small-Cell Lung Cancer Cells through a Mitochondria-Mediated Apoptotic Pathway” (J Nat Prod, 2022).
Active and inactive are the calls of the source. The calls are words filed in the database; no cut-off is given here.

Legend:
[1] = system: A549; experiment: Cytotoxicity against human A549 cells assessed as inhibition of cell proliferation measured after 24 to 72 hrs by MTT assay; type: functional, cell-based; details: dose 0.125-2 µM, time 24-72 hrs, DDE = dose-dependent effect
[2] = system: A549; experiment: Induction of apoptosis in human A549 cells assessed as late apoptotic cells at 0.5 uM incubated for 48 hrs by Annexin V-FITC/propidium iodide staining based flow cytometry (reference value: 0.82%); type: functional
[3] = system: A549; experiment: Induction of mitochondrial membrane potential depolarization in human A549 cells assessed as proportion of cells with depolarized mitochondria by measuring green fluorescent J-monomers at 0.125 uM incubated for 48 hrs by JC-1 staining based flow cytometry (reference value: 34.2%); type: functional
[4] = Stability of the compound in DMEM culture medium at 100 ug/ml measured after 72 hrs by HPLC analysis; type: physicochemical; details: at 100 µg/mL
[5] = system: A549; experiment: Anti-tumor activity against human A549 cells xenografted in BALB/c mouse assessed as reduction in tumor weight at 2 mg/kg, iv administered every 2 days for 13 days; type: functional; details: A549, 312 h, time 13 day
[6] = system: A549; experiment: Induction of mitochondrial membrane potential depolarization in human A549 cells assessed as proportion of cells with depolarized mitochondria by measuring green fluorescent J-monomers at 0.25 uM incubated for 48 hrs by JC-1 staining based flow cytometry (reference value: 34.2%); type: functional
[7] = Cytotoxicity against human MRC5 cells assessed as inhibition of cell growth measured after 96 hrs by MTT assay; type: toxicity, cell-based
[8] = system: A549; experiment: Cytotoxicity against human A549 cells assessed as inhibition of cell proliferation at 0.1 uM pretreated for 2 hrs with necroptosis inhibitor, necrostatin-1 followed by incubation with compound and measured after 48 hrs by MTT assay; type: functional, cell-based
[9] = system: A549; experiment: Induction of apoptosis in human A549 cells assessed as viable cells at 0.25 uM incubated for 48 hrs by Annexin V-FITC/propidium iodide staining based flow cytometry (reference value: 95.7%); type: functional; details: read-out: Activity
[10] = system: A549; experiment: Induction of apoptosis in human A549 cells assessed as early apoptotic cells at 0.125 uM incubated for 48 hrs by Annexin V-FITC/propidium iodide staining based flow cytometry (reference value: 0.11%); type: functional
[11] = system: A549; experiment: Induction of mitochondrial membrane potential depolarization in human A549 cells assessed as proportion of cells with depolarized mitochondria by measuring green fluorescent J-monomers at 0.5 uM incubated for 48 hrs by JC-1 staining based flow cytometry (reference value: 34.2%); type: functional
[12] = system: A549; experiment: Induction of apoptosis in human A549 cells assessed as necrotic cells at 0.25 uM incubated for 48 hrs by Annexin V-FITC/propidium iodide staining based flow cytometry (reference value: 3.36%); type: functional
[13] = system: A549; experiment: Induction of apoptosis in human A549 cells assessed as necrotic cells at 0.5 uM incubated for 48 hrs by Annexin V-FITC/propidium iodide staining based flow cytometry (reference value: 3.36%); type: functional
[14] = system: A549; experiment: Induction of apoptosis in human A549 cells assessed as increase in cleaved caspase-9 expression incubated for 48 hrs by western blot analysis; type: functional, cell-based; details: dose 0.25-4 µM, DDE = dose-dependent effect
[15] = system: A549; experiment: Anti-tumor activity against human A549 cells xenografted in BALB/c mouse assessed as reduction in tumor volume at 2 to 8 mg/kg, iv administered every 2 days for 13 days; type: functional, organism-based; details: dose 2-8 mg/kg, time 13.0 day
[16] = system: A549; experiment: Induction of apoptosis in human A549 cells assessed as early apoptotic cells at 0.25 uM incubated for 48 hrs by Annexin V-FITC/propidium iodide staining based flow cytometry (reference value: 0.11%); type: functional
[17] = system: A549; experiment: Anti-tumor activity against human A549 cells xenografted in BALB/c mouse assessed as reduction in tumor weight at 8 mg/kg, iv administered every 2 days for 13 days; type: functional; details: A549, 312 h, time 13 day
[18] = system: A549; experiment: Induction of apoptosis in human A549 cells assessed as early apoptotic cells at 0.5 uM incubated for 48 hrs by Annexin V-FITC/propidium iodide staining based flow cytometry (reference value: 0.11%); type: functional
[19] = system: A549; experiment: Induction of mitochondrial membrane potential depolarization in human A549 cells assessed as proportion of cells with intact mitochondria by measuring red fluorescent J-aggregates at 0.25 uM incubated for 48 hrs by JC-1 staining based flow cytometry (reference value: 63.9%); type: functional
[20] = system: A549; experiment: Cytotoxicity against human A549 cells assessed as inhibition of cell proliferation at 0.125 to 2 uM by MTT assay; type: functional, cell-based; details: dose 0.125-2 µM, time 24-72 hrs, TDE = time-dependent effect
[21] = system: A549; experiment: Induction of mitochondrial membrane potential depolarization in human A549 cells assessed as proportion of cells with intact mitochondria by measuring red fluorescent J-aggregates at 0.125 uM incubated for 48 hrs by JC-1 staining based flow cytometry (reference value: 63.9%); type: functional
[22] = system: A549; experiment: Induction of apoptosis in human A549 cells assessed as viable cells at 0.125 uM incubated for 48 hrs by Annexin V-FITC/propidium iodide staining based flow cytometry (reference value: 95.7%); type: functional; details: read-out: Activity
[23] = system: A549; experiment: Induction of mitochondrial membrane potential depolarization in human A549 cells assessed as proportion of cells with intact mitochondria by measuring red fluorescent J-aggregates at 0.5 uM incubated for 48 hrs by JC-1 staining based flow cytometry (reference value: 63.9%); type: functional
[24] = system: A549; experiment: Induction of apoptosis in human A549 cells assessed as increase in cleaved PARP expression incubated for 48 hrs by western blot analysis; type: functional, cell-based; details: dose 0.25-4 µM, DDE = dose-dependent effect
[25] = system: A549; experiment: Induction of apoptosis in human A549 cells assessed as necrotic cells at 0.125 uM incubated for 48 hrs by Annexin V-FITC/propidium iodide staining based flow cytometry (reference value: 3.36%); type: functional
[26] = system: A549; experiment: Induction of apoptosis in human A549 cells assessed as late apoptotic cells at 0.25 uM incubated for 48 hrs by Annexin V-FITC/propidium iodide staining based flow cytometry (reference value: 0.82%); type: functional
[27] = system: A549; experiment: Induction of apoptosis in human A549 cells assessed as decrease in Bcl-2 protein expression at 0.25 to 4 uM incubated for 48 hrs by western blot analysis; type: functional, cell-based; details: dose 0.25-4 µM
[28] = system: A549; experiment: Induction of apoptosis in human A549 cells assessed as increase in Bax protein expression at 0.25 to 4 uM incubated for 48 hrs by western blot analysis; type: functional, cell-based; details: dose 0.25-4 µM
[29] = system: A549; experiment: Induction of apoptosis in human A549 cells assessed as increase in cleaved caspase-8 expression at 0.25 to 4 uM incubated for 48 hrs by western blot analysis; type: functional, cell-based; details: dose 0.25-4 µM
[30] = system: A549; experiment: cells; details: Homo sapiens, A549, 96 h
Description: Cytotoxicity against human A549 cells assessed as inhibition of cell growth measured after 96 hrs by MTT assay

[31] = system: A549; experiment: Anti-tumor activity against human A549 cells xenografted in BALB/c mouse assessed as reduction in tumor weight at 4 mg/kg, iv administered every 2 days for 13 days; type: functional; details: A549, 312 h, time 13 day
[32] = system: A549; experiment: Induction of apoptosis in human A549 cells assessed as late apoptotic cells at 0.125 uM incubated for 48 hrs by Annexin V-FITC/propidium iodide staining based flow cytometry (reference value: 0.82%); type: functional
[33] = system: A549; experiment: Anti-tumor activity against human A549 cells xenografted in iv dosed BALB/c mouse assessed as reduction in tumor growth administered every 2 days for 13 days; type: functional, organism-based; details: dose 2-8 mg/kg, time 13.0 day, DDE = dose-dependent effect
[34] = Toxicity in BALB/c mouse xenografted with human A549 cells assessed as body weight loss at 2 to 8 mg/kg, iv administered every 2 days for 13 days; type: organism-based; details: in vivo, 312 h, dose 2-8 mg/kg, time 13 day
[35] = system: A549; experiment: Cytotoxicity against human A549 cells assessed as inhibition of cell proliferation at 0.1 uM pretreated for 2 hrs with autophagy inhibitor, 3-methyladenine followed by incubation with compound and measured after 48 hrs by MTT assay; type: functional, cell-based
[36] = system: A549; experiment: Induction of apoptosis in human A549 cells assessed as increase in cleaved caspase-3 expression incubated for 48 hrs by western blot analysis; type: functional, cell-based; details: dose 0.25-4 µM, DDE = dose-dependent effect
[37] = system: A549; experiment: Induction of apoptosis in human A549 cells assessed as viable cells at 0.5 uM incubated for 48 hrs by Annexin V-FITC/propidium iodide staining based flow cytometry (reference value: 95.7%); type: functional; details: read-out: Activity
[38] = Selectivity index, ratio of IC50 for human MRC5 cells to IC50 for human A549 cells; type: toxicity; details: MRC5 cells and A549 cells, read-out: Ratio IC50
[39] = system: A549; experiment: Induction of apoptosis in human A549 cells assessed as nuclear fragmentation and chromatin condensation incubated for 48 hrs by Hoechst 33342 staining based fluorescence microscopic analysis; type: functional, cell-based; details: dose 0.25-0.5 µM, DDE = dose-dependent effect
[40] = system: A549; experiment: Potency index, ratio of celastrol IC50 to test compound IC50 for cytotoxicity against human A549 cells by MTT assay; type: functional

In the case of `CC1=C(O)C(=O)C=C2C1=CC=C1[C@@]2(C)CC[C@@]2(C)[C@@H]3C[C@](C)(C(=O)N4CCN(C(=O)CN5C(=O)S/C(=C\C6CC6)C5=O)CC4)CC[C@]3(C)CC[C@]12C`, the Activity [1] is reported as “Dde”, the Activity [2] is reported as 29.5% and the Activity [3] is reported as 38.2%. For the same molecule, the Stability [4] was “Stable”, the inhibition in vivo at 2 mg/kg [5] was 48.8% and the Activity [6] was 42.3%. For the same molecule, the IC50 at 96 h [7] was 3.02 µM, the Activity [8] was “Active” and the viability at 0.25 µM [9] was 71.8%. The Activity [10] was 1.9%, the Activity [11] was 46.4% and the Activity [12] was 5.86%. For the same molecule, the Activity [13] was 6.96%, the Activity [14] was “Dde” and the Activity [15] was “Active”. The Activity [16] was 2.68%, the inhibition in vivo at 8 mg/kg [17] was 69.5% and the Activity [18] was 3.73%. For the same molecule, the Activity [19] was 56%, the Activity [20] was “Tde” and the Activity [21] was 60.2%. The viability at 0.125 µM [22] was 85.8%, the Activity [23] was 51.7% and the Activity [24] was “Dde”. The Activity [25] was 4.59%, the Activity [26] was 19.6% and the Activity [27] was “Active”. For the same molecule, the Activity [28] was “Active”, the Activity [29] was “Active” and the IC50 [30] was 0.08 µM. For the same molecule, the inhibition in vivo at 4 mg/kg [31] was 64.4%, the Activity [32] was 7.71% and the Activity [33] was “Dde”. For the same molecule, the Activity [34] was “Non-Toxic”, the Activity [35] was “Active” and the Activity [36] was “Dde”. For the same molecule, the viability at 0.5 µM [37] was 59.8%, the selectivity ratio [38] was 37.8 and the Activity [39] was “Dde”. For the same molecule, the “Ratio IC50” value [40] was 13.8.
In the case of `CC1=C(O)C(=O)C=C2C1=CC=C1[C@@]2(C)CC[C@@]2(C)[C@@H]3C[C@](C)(C(=O)O)CC[C@]3(C)CC[C@]12C` [CELASTROL], the Activity [1] is reported as “Dde”, the Activity [2] is reported as 6.97% and the IC50 at 96 h [7] is reported as 4.4 µM. For the same molecule, the Activity [13] was 4.6%, the Activity [18] was 1.12% and the Activity [20] was “Tde”. The IC50 [30] was 1.1 µM, the viability at 0.5 µM [37] was 87.3% and the selectivity ratio [38] was 4.
